Test system: nerve injury-induced tactile allodynia
Experiment: Spinal nerve ligation model (Chung model) of neuropathic pain
Assay type: in vivo, Male Sprague Dawley rats
Conditions: rat
From the text: The spinal nerve ligation model of neuropathic pain was used to assess the effects of test compounds on nerve injury-induced tactile allodynia (S. H. Kim and J. M. Chung, Pain 50:355-363(1992)). Male Sprague Dawley rats (175-200 g) received unilateral tight ligation of the left L5/L6 spinal nerves distal to the dorsal root ganglion using 4-0 silk suture. Behavioral-nociceptive testing occurred 7-14 days following spinal nerve ligation by placing the rats in chambers on a wire mesh. Rats were tested for tactile allodynia (decreased hindpaw withdrawal threshold to non-noxious punctate stimulation) by applying a series of calibrated von Frey filaments to the plantar aspect of the left hindpaw ipsilateral to the site of nerve injury. The mean 50% hindpaw withdrawal threshold (g.) was determined using the Dixon “up-down” non-parametric test (Chaplan et al., J. Neurosci. Methods, 53:55-63(1994)). […] Following determination of pre-drug withdrawal thresholds, rats received either an i.p. or p.o. injection of test compound. The effect of the test compound on tactile allodynia was determined over time by measuring hindpaw withdrawal thresholds 30, 60, 90, 120 min post-injection. In above model, EXAMPLE 1 produced a 65% effect after i.p. dosing at 30 mg/kg, EXAMPLE 50 produced a 100% effect after i.p. dosing at 20 mg/kg, EXAMPLE 115 produced a 60% effect after i.p. dosing at 30 mg/kg i.p.

Question: For CCOc1ccc(-n2c(C)c3c(C)nnc(-c4ccc(OC)cc4)c3c2C)cc1 [EXAMPLE 1, 6-(4-ethoxyphenyl)-1-(4-methoxyphenyl)-4,5,7-trimethyl-6H-pyrrolo[3,4-d]pyridazine], which “effect on tactile allodynia (hindpaw withdrawal threshold)” value (“effect on tactile allodynia” for short) (i.p. dosing at 30 mg/kg) is on record?
Answer: 65%

Question: With CCOc1ccc(-n2c(C)c3c(C)nnc(C)c3c2C)cc1 [EXAMPLE 50, 6-(4-ethoxyphenyl)-1,4,5,7-tetramethyl-6H-pyrrolo[3,4-d]pyridazine] as the compound, how does the “effect on tactile allodynia” value (i.p. dosing at 20 mg/kg) read?
Answer: 100%

Question: With CCOc1ccc(-n2c(C)c3c(C)nnc(NC4CCc5ccccc54)c3c2C)c(OC)c1 (stereo not drawn) [EXAMPLE 115, N-(2,3-dihydro-1H-inden-1-yl)-6-(4-ethoxy-2-methoxyphenyl)-4,5,7-trimethyl-6H-pyrrolo[3,4-d]pyridazin-1-amine] as the compound, how does the “effect on tactile allodynia” value (i.p. dosing at 30 mg/kg) read?
Answer: 60%

Source: patent US7465730B2, “Treatment of neuropathic pain with 6H-pyrrolo[3,4-d]pyridazine compounds” (Merck & Co. Inc., priority 2002, dated 2008)
